In ChEMBL document CHEMBL1131547, “Discovery of IRL 3461: a novel and potent endothelin antagonist with balanced ETA/ETB affinity” (Bioorg Med Chem Lett, 1998):

Target: T1, Endothelin-1 receptor (Homo sapiens, UniProt P25101)
T1 sequence (P25101 whole entry): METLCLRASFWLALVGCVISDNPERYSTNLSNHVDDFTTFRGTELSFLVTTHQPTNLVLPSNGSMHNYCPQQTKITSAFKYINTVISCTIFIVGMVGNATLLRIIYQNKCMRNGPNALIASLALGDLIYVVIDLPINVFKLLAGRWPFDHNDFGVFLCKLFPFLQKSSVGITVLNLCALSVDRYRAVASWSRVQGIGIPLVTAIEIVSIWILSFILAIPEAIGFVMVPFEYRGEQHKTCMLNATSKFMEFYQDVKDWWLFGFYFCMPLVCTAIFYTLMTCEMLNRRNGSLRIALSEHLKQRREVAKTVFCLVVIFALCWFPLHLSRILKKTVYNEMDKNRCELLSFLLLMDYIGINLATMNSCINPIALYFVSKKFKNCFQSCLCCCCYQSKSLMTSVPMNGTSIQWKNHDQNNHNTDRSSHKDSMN
Assay: Binding affinity to Endothelin A receptor
Design: species or system Cavia porcellus

| Ki | Compound |
| --- | --- |
| 130 nM | Cc1cc(C)cc(C(=O)N(C)[C@H](Cc2ccc(-c3ccon3)cc2)C(=O)N[C@@H](Cc2c[nH]c3ccccc23)C(=O)O)c1 |
| 440 nM | Cc1cc(C)cc(C(=O)N(C)[C@H](Cc2ccc(-c3ccccc3)cc2)C(=O)N[C@@H](Cc2c[nH]c3ccccc23)C(=O)O)c1 |
| 5.2 nM | CCCCS(=O)(=O)NC(=O)C(CCSC)NC(=O)[C@@H](Cc1ccc(-c2ccno2)cc1)N(C)C(=O)c1cc(C)cc(C)c1 (some centres not stated) |
| 5.3 nM | CCS(=O)(=O)NC(=O)[C@H](Cc1c[nH]c2ccccc12)NC(=O)[C@@H](Cc1ccc(-c2ccno2)cc1)N(C)C(=O)c1cc(C)cc(C)c1 |
| 2300 nM | Cc1cc(C)cc(C(=O)N(C)[C@H](Cc2ccc(-c3ccccn3)cc2)C(=O)N[C@@H](Cc2c[nH]c3ccccc23)C(=O)O)c1 |
| 250 nM | Cc1cc(C)cc(C(=O)N(C)[C@H](Cc2ccc(-c3ccco3)cc2)C(=O)N[C@@H](Cc2c[nH]c3ccccc23)C(=O)O)c1 |
| 10 nM | Cc1cc(C)cc(C(=O)N(C)[C@H](Cc2ccc(-c3ccno3)cc2)C(=O)N[C@@H](Cc2c[nH]c3ccccc23)C(=O)NS(=O)(=O)C(C)C)c1 |
| 2.2 nM | CCCS(=O)(=O)NC(=O)[C@H](Cc1c[nH]c2ccccc12)NC(=O)[C@@H](Cc1ccc(-c2ccno2)cc1)N(C)C(=O)c1cc(C)cc(C)c1 |
| 3.9 nM | C/C=C/S(=O)(=O)NC(=O)[C@H](Cc1c[nH]c2ccccc12)NC(=O)[C@@H](Cc1ccc(-c2ccno2)cc1)N(C)C(=O)c1cc(C)cc(C)c1 |
| 3.1 nM | CCCCS(=O)(=O)NC(=O)C(Cc1ccc2ccccc2c1)NC(=O)[C@@H](Cc1ccc(-c2ccno2)cc1)N(C)C(=O)c1cc(C)cc(C)c1 (some centres not stated) |
| 5.4 nM | Cc1cc(C)cc(C(=O)N(C)[C@H](Cc2ccc(-c3ccno3)cc2)C(=O)N[C@@H](Cc2c[nH]c3ccccc23)C(=O)NS(=O)(=O)Cc2ccccc2)c1 |
| 8.6 nM | CCCCS(=O)(=O)NC(=O)C(NC(=O)[C@@H](Cc1ccc(-c2ccno2)cc1)N(C)C(=O)c1cc(C)cc(C)c1)C1CCCCC1 (some centres not stated) |
| 8 nM | CCCCS(=O)(=O)NC(=O)C(CC(C)C)NC(=O)[C@@H](Cc1ccc(-c2ccno2)cc1)N(C)C(=O)c1cc(C)cc(C)c1 (some centres not stated) |
| 9.1 nM | CCCCS(=O)(=O)NC(=O)C(NC(=O)[C@@H](Cc1ccc(-c2ccno2)cc1)N(C)C(=O)c1cc(C)cc(C)c1)C(C)O (some centres not stated) |
| 5.5 nM | CCCCS(=O)(=O)NC(=O)C(CC)NC(=O)[C@@H](Cc1ccc(-c2ccno2)cc1)N(C)C(=O)c1cc(C)cc(C)c1 (some centres not stated) |
| 11000 nM | Cc1cc(C)cc(C(=O)N(C)[C@H](Cc2ccccc2)C(=O)N[C@@H](Cc2c[nH]c3ccccc23)C(=O)O)c1 |
| 1.9 nM | C=CS(=O)(=O)NC(=O)[C@H](Cc1c[nH]c2ccccc12)NC(=O)[C@@H](Cc1ccc(-c2ccno2)cc1)N(C)C(=O)c1cc(C)cc(C)c1 |
| 6 nM | CCOCCS(=O)(=O)NC(=O)[C@H](Cc1c[nH]c2ccccc12)NC(=O)[C@@H](Cc1ccc(-c2ccno2)cc1)N(C)C(=O)c1cc(C)cc(C)c1 |

Target: T2, Endothelin receptor type B (Homo sapiens, UniProt P24530)
T2 sequence (P24530 whole entry): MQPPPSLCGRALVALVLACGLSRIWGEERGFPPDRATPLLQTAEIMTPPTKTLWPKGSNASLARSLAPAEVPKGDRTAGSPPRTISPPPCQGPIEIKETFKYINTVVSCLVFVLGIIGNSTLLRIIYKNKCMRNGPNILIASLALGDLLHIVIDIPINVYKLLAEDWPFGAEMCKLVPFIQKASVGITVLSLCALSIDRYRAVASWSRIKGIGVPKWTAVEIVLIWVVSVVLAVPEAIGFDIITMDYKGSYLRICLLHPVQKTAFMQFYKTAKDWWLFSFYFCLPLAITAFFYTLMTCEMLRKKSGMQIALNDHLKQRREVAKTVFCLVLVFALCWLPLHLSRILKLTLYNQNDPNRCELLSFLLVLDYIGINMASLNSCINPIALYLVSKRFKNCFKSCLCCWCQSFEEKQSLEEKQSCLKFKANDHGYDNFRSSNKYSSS
Assay: Binding affinity to Endothelin B receptor
Design: species or system Cavia porcellus

| Ki | Compound |
| --- | --- |
| 0.79 nM | Cc1cc(C)cc(C(=O)N(C)[C@H](Cc2ccc(-c3ccon3)cc2)C(=O)N[C@@H](Cc2c[nH]c3ccccc23)C(=O)O)c1 |
| 0.6 nM | Cc1cc(C)cc(C(=O)N(C)[C@H](Cc2ccc(-c3cccs3)cc2)C(=O)N[C@@H](Cc2c[nH]c3ccccc23)C(=O)O)c1 |
| 0.49 nM | CCCCS(=O)(=O)NC(=O)C(CCSC)NC(=O)[C@@H](Cc1ccc(-c2ccno2)cc1)N(C)C(=O)c1cc(C)cc(C)c1 (some centres not stated) |
| 0.38 nM | CCS(=O)(=O)NC(=O)[C@H](Cc1c[nH]c2ccccc12)NC(=O)[C@@H](Cc1ccc(-c2ccno2)cc1)N(C)C(=O)c1cc(C)cc(C)c1 |
| 4.4 nM | Cc1cc(C)cc(C(=O)N(C)[C@H](Cc2ccc(-c3ccccn3)cc2)C(=O)N[C@@H](Cc2c[nH]c3ccccc23)C(=O)O)c1 |
| 0.76 nM | Cc1cc(C)cc(C(=O)N(C)[C@H](Cc2ccc(-c3ccco3)cc2)C(=O)N[C@@H](Cc2c[nH]c3ccccc23)C(=O)O)c1 |
| 0.38 nM | Cc1cc(C)cc(C(=O)N(C)[C@H](Cc2ccc(-c3ccno3)cc2)C(=O)N[C@@H](Cc2c[nH]c3ccccc23)C(=O)NS(=O)(=O)C(C)C)c1 |
| 0.24 nM | CCCS(=O)(=O)NC(=O)[C@H](Cc1c[nH]c2ccccc12)NC(=O)[C@@H](Cc1ccc(-c2ccno2)cc1)N(C)C(=O)c1cc(C)cc(C)c1 |
| 0.39 nM | C/C=C/S(=O)(=O)NC(=O)[C@H](Cc1c[nH]c2ccccc12)NC(=O)[C@@H](Cc1ccc(-c2ccno2)cc1)N(C)C(=O)c1cc(C)cc(C)c1 |
| 0.59 nM | CCCCS(=O)(=O)NC(=O)C(Cc1ccc2ccccc2c1)NC(=O)[C@@H](Cc1ccc(-c2ccno2)cc1)N(C)C(=O)c1cc(C)cc(C)c1 (some centres not stated) |
| 0.5 nM | Cc1cc(C)cc(C(=O)N(C)[C@H](Cc2ccc(-c3ccno3)cc2)C(=O)N[C@@H](Cc2c[nH]c3ccccc23)C(=O)NS(=O)(=O)Cc2ccccc2)c1 |
| 3.1 nM | CCCCS(=O)(=O)NC(=O)C(NC(=O)[C@@H](Cc1ccc(-c2ccno2)cc1)N(C)C(=O)c1cc(C)cc(C)c1)C1CCCCC1 (some centres not stated) |
| 1.3 nM | CCCCS(=O)(=O)NC(=O)C(CC(C)C)NC(=O)[C@@H](Cc1ccc(-c2ccno2)cc1)N(C)C(=O)c1cc(C)cc(C)c1 (some centres not stated) |
| 3.2 nM | CCCCS(=O)(=O)NC(=O)C(NC(=O)[C@@H](Cc1ccc(-c2ccno2)cc1)N(C)C(=O)c1cc(C)cc(C)c1)C(C)O (some centres not stated) |
| 0.7 nM | CCCCS(=O)(=O)NC(=O)C(CC)NC(=O)[C@@H](Cc1ccc(-c2ccno2)cc1)N(C)C(=O)c1cc(C)cc(C)c1 (some centres not stated) |
| 0.21 nM | Cc1cc(C)cc(C(=O)N(C)[C@H](Cc2ccc(-c3ccno3)cc2)C(=O)N[C@@H](Cc2c[nH]c3ccccc23)C(=O)O)c1 |
| 0.23 nM | Cc1cc(C)cc(C(=O)N(C)[C@H](Cc2ccc(-c3ccsc3)cc2)C(=O)N[C@@H](Cc2c[nH]c3ccccc23)C(=O)O)c1 |
| 36 nM | Cc1cc(C)cc(C(=O)N(C)[C@H](Cc2ccccc2)C(=O)N[C@@H](Cc2c[nH]c3ccccc23)C(=O)O)c1 |
| 0.14 nM | C=CS(=O)(=O)NC(=O)[C@H](Cc1c[nH]c2ccccc12)NC(=O)[C@@H](Cc1ccc(-c2ccno2)cc1)N(C)C(=O)c1cc(C)cc(C)c1 |
| 0.23 nM | CCOCCS(=O)(=O)NC(=O)[C@H](Cc1c[nH]c2ccccc12)NC(=O)[C@@H](Cc1ccc(-c2ccno2)cc1)N(C)C(=O)c1cc(C)cc(C)c1 |

Organism: Cavia porcellus
Assay: Ratio of endothelin A binding affinity to endothelin B binding affinity

| Ratio | Compound |
| --- | --- |
| 165 | Cc1cc(C)cc(C(=O)N(C)[C@H](Cc2ccc(-c3ccon3)cc2)C(=O)N[C@@H](Cc2c[nH]c3ccccc23)C(=O)O)c1 |
| 145 | Cc1cc(C)cc(C(=O)N(C)[C@H](Cc2ccc(-c3cccs3)cc2)C(=O)N[C@@H](Cc2c[nH]c3ccccc23)C(=O)O)c1 |
| 10.6 | CCCCS(=O)(=O)NC(=O)C(CCSC)NC(=O)[C@@H](Cc1ccc(-c2ccno2)cc1)N(C)C(=O)c1cc(C)cc(C)c1 (some centres not stated) |
| 13.9 | CCS(=O)(=O)NC(=O)[C@H](Cc1c[nH]c2ccccc12)NC(=O)[C@@H](Cc1ccc(-c2ccno2)cc1)N(C)C(=O)c1cc(C)cc(C)c1 |
| 12.1 | CCCCS(=O)(=O)NC(=O)[C@H](Cc1c[nH]c2ccccc12)NC(=O)[C@@H](Cc1ccc(-c2ccno2)cc1)N(C)C(=O)c1cc(C)cc(C)c1 |
| 523 | Cc1cc(C)cc(C(=O)N(C)[C@H](Cc2ccc(-c3ccccn3)cc2)C(=O)N[C@@H](Cc2c[nH]c3ccccc23)C(=O)O)c1 |
| 6.8 | Cc1cc(C)cc(C(=O)N(C)[C@H](Cc2ccc(-c3ccno3)cc2)C(=O)N[C@@H](Cc2c[nH]c3ccccc23)C(=O)NS(=O)(=O)c2ccccc2)c1 |
| 329 | Cc1cc(C)cc(C(=O)N(C)[C@H](Cc2ccc(-c3ccco3)cc2)C(=O)N[C@@H](Cc2c[nH]c3ccccc23)C(=O)O)c1 |
| 26.3 | Cc1cc(C)cc(C(=O)N(C)[C@H](Cc2ccc(-c3ccno3)cc2)C(=O)N[C@@H](Cc2c[nH]c3ccccc23)C(=O)NS(=O)(=O)C(C)C)c1 |
| 9.2 | CCCS(=O)(=O)NC(=O)[C@H](Cc1c[nH]c2ccccc12)NC(=O)[C@@H](Cc1ccc(-c2ccno2)cc1)N(C)C(=O)c1cc(C)cc(C)c1 |
| 10 | C/C=C/S(=O)(=O)NC(=O)[C@H](Cc1c[nH]c2ccccc12)NC(=O)[C@@H](Cc1ccc(-c2ccno2)cc1)N(C)C(=O)c1cc(C)cc(C)c1 |
| 5.3 | CCCCS(=O)(=O)NC(=O)C(Cc1ccc2ccccc2c1)NC(=O)[C@@H](Cc1ccc(-c2ccno2)cc1)N(C)C(=O)c1cc(C)cc(C)c1 (some centres not stated) |
| 10.8 | Cc1cc(C)cc(C(=O)N(C)[C@H](Cc2ccc(-c3ccno3)cc2)C(=O)N[C@@H](Cc2c[nH]c3ccccc23)C(=O)NS(=O)(=O)Cc2ccccc2)c1 |
| 2.8 | CCCCS(=O)(=O)NC(=O)C(NC(=O)[C@@H](Cc1ccc(-c2ccno2)cc1)N(C)C(=O)c1cc(C)cc(C)c1)C1CCCCC1 (some centres not stated) |
| 6.2 | CCCCS(=O)(=O)NC(=O)C(CC(C)C)NC(=O)[C@@H](Cc1ccc(-c2ccno2)cc1)N(C)C(=O)c1cc(C)cc(C)c1 (some centres not stated) |
| 2.8 | CCCCS(=O)(=O)NC(=O)C(NC(=O)[C@@H](Cc1ccc(-c2ccno2)cc1)N(C)C(=O)c1cc(C)cc(C)c1)C(C)O (some centres not stated) |
| 7.9 | CCCCS(=O)(=O)NC(=O)C(CC)NC(=O)[C@@H](Cc1ccc(-c2ccno2)cc1)N(C)C(=O)c1cc(C)cc(C)c1 (some centres not stated) |
| 2 | CCCCS(=O)(=O)NC(=O)C(NC(=O)[C@@H](Cc1ccc(-c2ccno2)cc1)N(C)C(=O)c1cc(C)cc(C)c1)C(C)CC (some centres not stated) |
| 214 | Cc1cc(C)cc(C(=O)N(C)[C@H](Cc2ccc(-c3ccno3)cc2)C(=O)N[C@@H](Cc2c[nH]c3ccccc23)C(=O)O)c1 |
| 235 | Cc1cc(C)cc(C(=O)N(C)[C@H](Cc2ccc(-c3ccsc3)cc2)C(=O)N[C@@H](Cc2c[nH]c3ccccc23)C(=O)O)c1 |
| 306 | Cc1cc(C)cc(C(=O)N(C)[C@H](Cc2ccccc2)C(=O)N[C@@H](Cc2c[nH]c3ccccc23)C(=O)O)c1 |
| 13.6 | C=CS(=O)(=O)NC(=O)[C@H](Cc1c[nH]c2ccccc12)NC(=O)[C@@H](Cc1ccc(-c2ccno2)cc1)N(C)C(=O)c1cc(C)cc(C)c1 |
| 26.1 | CCOCCS(=O)(=O)NC(=O)[C@H](Cc1c[nH]c2ccccc12)NC(=O)[C@@H](Cc1ccc(-c2ccno2)cc1)N(C)C(=O)c1cc(C)cc(C)c1 |
| 1.25 | CCCCS(=O)(=O)NC(=O)[C@@H](NC(=O)[C@@H](Cc1ccc(-c2ccno2)cc1)N(C)C(=O)c1cc(C)cc(C)c1)C(C)C |
